Molecules are shown by their SMILES. pIC50: −log10 of the molar value.

19 compounds from patent US10308644B2, “Heterocyclic compounds as immunomodulators” (Incyte Corporation, priority 2016, dated 2019) can be followed below.

The experiment deals with PD-1/PD-L1 (Homo sapiens (Human), UniProt Q9NZQ7). Description: PD-1/PD-L1 Homogeneous Time-Resolved Fluorescence (HTRF) Binding Assay. Conditions: recombinant human PD-1 (3 nM) and PD-L1 (10 nM), 25° C., PBS pH 7.4. Here is the method:
Example A. PD-1/PD-L1 Homogeneous Time-Resolved Fluorescence (HTRF) Binding Assay
The assays were conducted in a standard black 384-well polystyrene plate with a final volume of 20 μL. Inhibitors were first serially diluted in DMSO and then added to the plate wells before the addition of other reaction components. The final concentration of DMSO in the assay was 1%. The assays were carried out at 25° C. in the PBS buffer (pH 7.4) with 0.05% Tween-20 and 0.1% BSA. Recombinant human PD-L1 protein (19-238) with a His-tag at the C-terminus was purchased from AcroBiosystems (PD1-H5229). Recombinant human PD-1 protein (25-167) with Fc tag at the C-terminus was also purchased from AcroBiosystems (PD1-H5257). PD-L1 and PD-1 proteins were diluted in the assay buffer and 10 μL was added to the plate well. Plates were centrifuged and proteins were preincubated with inhibitors for 40 minutes. The incubation was followed by the addition of 10 μL of HTRF detection buffer supplemented with Europium cryptate-labeled anti-human IgG (PerkinElmer-AD0212) specific for Fc and anti-His antibody conjugated to SureLight®-Allophycocyanin (APC, PerkinElmer-AD0059H). After centrifugation, the plate was incubated at 25° C. for 60 min. before reading on a PHERAstar FS plate reader (665 nm/620 nm ratio). Final concentrations in the assay were—3 nM PD1, 10 nM PD-L1, 1 nM europium anti-human IgG and 20 nM anti-His-Allophycocyanin. IC50 determination was performed by fitting the curve of percent control activity versus the log of the inhibitor concentration using the GraphPad Prism 5.0 software.

Chain of PD-1/PD-L1 (Q9NZQ7 19-238): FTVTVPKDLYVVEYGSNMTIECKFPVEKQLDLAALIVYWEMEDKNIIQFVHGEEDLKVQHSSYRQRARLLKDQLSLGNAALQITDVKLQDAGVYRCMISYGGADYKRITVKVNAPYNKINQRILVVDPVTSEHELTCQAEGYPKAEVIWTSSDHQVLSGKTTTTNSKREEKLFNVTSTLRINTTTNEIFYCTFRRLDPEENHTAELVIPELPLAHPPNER

Take `Cc1c(Nc2nccc3cc(CNCCO)cnc23)cccc1-c1cccc(-c2nc3cc(CN4CC[C@@](C)(C(=O)O)C4)cc(C#N)c3o2)c1C` [Example 189, (R)-1-((7-cyano-2-(3′-(3-((2-hydroxyethylamino)methyl)-1,7-naphthyridin-8-ylamino)-2,2′-dimethylbiphenyl-3-yl)benzo[d]oxazol-5-yl)methyl)-3-methylpyrrolidine-3-carboxylic acid]: the pIC50 is at least 8.00.
Next, `Cc1c(-c2nc3cc(CN4CC[C@@H](C(=O)O)C4)cc(C#N)c3o2)cccc1-c1cccc(-c2nc3c(s2)C(C)(C)N(C)CC3)c1C` [Example 79, (R)-1-((7-cyano-2-(2,2′-dimethyl-3′-(4,4,5-trimethyl-4,5,6,7-tetrahydrothiazolo[5,4-c]pyridin-2-yl)-[1,1′-biphenyl]-3-yl)benzo[d]oxazol-5-yl)methyl)pyrrolidine-3-carboxylic acid]: at least 8.00.
Next, `CCN1CCc2cn(-c3cccc(-c4cccc(-c5nc6cc(CN7CC[C@@H](C(=O)O)C7)cc(C#N)c6o5)c4C)c3Cl)nc2C1` [Example 58, (R)-1-((2-(2′-chloro-3′-(6-ethyl-4,5,6,7-tetrahydro-2H-pyrazolo[3,4-c]pyridin-2-yl)-2-methylbiphenyl-3-yl)-7-cyanobenzo[d]oxazol-5-yl)methyl)pyrrolidine-3-carboxylic acid]: at least 8.00; `Cc1c(-c2nc3cc(CN4CC[C@@H](O)C4)cc(C#N)c3o2)cccc1-c1cccc(NC(=O)c2nc3c(n2C)CC(C)(C(=O)O)N(C)C3)c1Cl` (stereo partly drawn) [Example 165, 2-(2-chloro-3′-(7-cyano-5-(((R)-3-hydroxypyrrolidin-1-yl)methyl)benzo[d]oxazol-2-yl)-2′-methylbiphenyl-3-ylcarbamoyl)-1,5,6-trimethyl-4,5,6,7-tetrahydro-1H-imidazo[4,5-c]pyridine-6-carboxylic acid]: at least 8.00.
Next, `Cc1c(Nc2nccc3cc(CNC[C@@H](C)O)cnc23)cccc1-c1cccc(-c2nc3cc(CN4CCC(C(=O)O)CC4)cc(C#N)c3o2)c1C` [Example 203, (R)-1-((7-cyano-2-(3′-(3-((2-hydroxypropylamino)methyl)-1,7-naphthyridin-8-ylamino)-2,2′-dimethylbiphenyl-3-yl)benzo[d]oxazol-5-yl)methyl)piperidine-4-carboxylic acid]: at least 8.00.
Take `Cc1c(Nc2nccc3nccnc23)cccc1-c1cccc(-c2nc3cc(CN4CC[C@@H](C(=O)O)C4)cc(Cl)c3o2)c1C` [Example 11, (R)-1-((7-chloro-2-(2,2′-dimethyl-3′-(pyrido[4,3-b]pyrazin-5-ylamino)biphenyl-3-yl)benzo[d]oxazol-5-yl)methyl)pyrrolidine-3-carboxylic acid]: the pIC50 was at least 8.00.
On to `Cc1c(-c2nc3cc(CN4CC[C@@H](O)C4)cc(C#N)c3o2)cccc1-c1cccc(NC(=O)c2nc3c(n2C)CCN(Cc2ccc(B(O)O)cc2)C3)c1Cl` [Example 240, (R)-4-((2-(2-chloro-3′-(7-cyano-5-((3-hydroxypyrrolidin-1-yl)methyl)benzo[d]oxazol-2-yl)-2′-methylbiphenyl-3-ylcarbamoyl)-1-methyl-6,7-dihydro-1H-imidazo[4,5-c]pyridin-5(4H)-yl)methyl)phenylboronic acid], for which the pIC50 was at least 8.00.
Next, `Cc1c(-c2nc3c(o2)CN(C(=O)CN2CCC(O)CC2)C3)cccc1-c1cccc(-c2nc3cc(CN4CC[C@@H](C(=O)O)C4)cc(C#N)c3o2)c1C` [Example 250, (R)-1-((7-cyano-2-(3′-(5-(2-(4-hydroxypiperidin-1-yl)acetyl)-5,6-dihydro-4H-pyrrolo[3,4-d]oxazol-2-yl)-2,2′-dimethyl-[1,1′-biphenyl]-3-yl)benzo[d]oxazol-5-yl)methyl)pyrrolidine-3-carboxylic acid]: at least 8.00; `Cc1c(-c2nc3c(o2)CN(C(=O)CN2CC[C@@H](O)C2)C3)cccc1-c1cccc(-c2nc3cc(CN4CC[C@@](C)(C(=O)O)C4)cc(C#N)c3o2)c1C` [Example 247, (R)-1-((7-cyano-2-(3′-(5-(2-((R)-3-hydroxypyrrolidin-1-yl)acetyl)-5,6-dihydro-4H-pyrrolo[3,4-d]oxazol-2-yl)-2,2′-dimethyl-[1,1′-biphenyl]-3-yl)-benzo[d]oxazol-5-yl)methyl)-3-methylpyrrolidine-3-carboxylic acid]: at least 8.00; `Cc1c(-c2nc3cc(CN4CC[C@@H](C(=O)O)C4)cc(C#N)c3o2)cccc1-c1cccc(Nc2nccc3cc(CN4CC[C@@H](O)C4)cnc23)c1Cl` [Example 84, (R)-1-((2-(2′-chloro-3′-(3-(((R)-3-hydroxypyrrolidin-1-yl)methyl)-1,7-naphthyridin-8-ylamino)-2-methylbiphenyl-3-yl)-7-cyanobenzo[d]oxazol-5-yl)methyl)pyrrolidine-3-carboxylic acid]: at least 8.00.
As to `Cc1c(-c2nc3cc(CN4CC[C@@H](C(=O)O)C4)cc(C#N)c3o2)cccc1-c1cccc(-c2nc3c(s2)CN(C(=O)CN2CC[C@H](O)C2)C3)c1C` [Example 112, (R)-1-((7-cyano-2-(3′-(5-(2-((S)-3-hydroxypyrrolidin-1-yl)acetyl)-5,6-dihydro-4H-pyrrolo[3,4-d]thiazol-2-yl)-2,2′-dimethylbiphenyl-3-yl)benzo[d]oxazol-5-yl)methyl)pyrrolidine-3-carboxylic acid], the pIC50 was at least 8.00.
For the compound `Cc1c(-c2nc3cc(CN4CC[C@@H](O)C4)cc(C#N)c3o2)cccc1-c1cccc(NC(=O)c2nc3c(n2C)CCN(C2CCCC(C(=O)O)CC2)C3)c1Cl` (stereo partly drawn) [Example 264, 4-(2-(2-chloro-3′-(7-cyano-5-(((R)-3-hydroxypyrrolidin-1-yl)methyl)benzo[d]oxazol-2-yl)-2′-methylbiphenyl-3-ylcarbamoyl)-1-methyl-6,7-dihydro-1H-imidazo[4,5-c]pyridin-5(4H)-yl)cycloheptane carboxylic acid], the pIC50 is at least 8.00.
Next, `Cc1c(-c2nc3cc(CN4CC[C@@H](C(=O)O)C4)cc(C#N)c3o2)cccc1-c1cccc(N2CCC(N[C@H]3C[C@@H](O)C3)CC2)c1Cl` [Example 47, (R)-1-((2-(2′-chloro-3′-(4-((1s,3s)-3-hydroxycyclobutylamino)piperidin-1-yl)-2-methylbiphenyl-3-yl)-7-cyanobenzo[d]oxazol-5-yl)methyl)pyrrolidine-3-carboxylic acid]: at least 8.00; `Cc1c(-c2nc3c(o2)CN(C(=O)CN2CCC(O)CC2)C3)cccc1-c1cccc(-c2nc3cc(CN4CC5CC4CC5C(=O)O)cc(C#N)c3o2)c1C` (stereo not shown) [Example 251, 2-((7-cyano-2-(3′-(5-(2-(4-hydroxypiperidin-1-yl)acetyl)-5,6-dihydro-4H-pyrrolo[3,4-d]oxazol-2-yl)-2,2′-dimethyl-[1,1′-biphenyl]-3-yl)benzo[d]oxazol-5-yl)methyl)-2-azabicyclo[2.2.1]heptane-5-carboxylic acid]: at least 8.00; `Cc1c(-c2nc3cc(CN4CC[C@H](C(=O)O)C4)cc(C#N)c3o2)cccc1-c1cccc(NC(=O)c2nc3c(n2C)CCN(C)C3)c1F` [Example 51, (S)-1-((7-cyano-2-(3′-(1,5-dimethyl-4,5,6,7-tetrahydro-1H-imidazo[4,5-c]pyridine-2-carboxamido)-2′-fluoro-2-methylbiphenyl-3-yl)benzo[d]oxazol-5-yl)methyl)pyrrolidine-3-carboxylic acid]: at least 8.00.
On to `Cc1c(-c2nc3cc(CN4CC[C@@](C)(C(=O)O)C4)cc(C#N)c3o2)cccc1-c1cccc(-c2nc3c(s2)CN(C(=O)CN(C)C(C)C)C3)c1C` [Example 217, (R)-1-((7-cyano-2-(3′-(5-(2-(isopropyl(methyl)amino)acetyl)-5,6-dihydro-4H-pyrrolo[3,4-d]thiazol-2-yl)-2,2′-dimethylbiphenyl-3-yl)benzo[d]oxazol-5-yl)methyl)-3-methylpyrrolidine-3-carboxylic acid], for which the pIC50 was at least 8.00.
Next, `Cc1c(Nc2nccc3cc(CN4CC[C@@H](O)C4)cnc23)cccc1-c1cccc(-c2nc3cc(CNC45CCC(C(=O)O)(CC4)C5)cc(C#N)c3o2)c1C` [Example 183, (R)-4-((7-cyano-2-(3′-(3-((3-hydroxypyrrolidin-1-yl)methyl)-1,7-naphthyridin-8-ylamino)-2,2′-dimethylbiphenyl-3-yl)benzo [d]oxazol-5-yl)methylamino)bicyclo[2.2.1]heptane-1-carboxylic acid]: at least 8.00.
Take `Cc1c(Nc2nccc3cc(CN4CC[C@@H](O)C4)cnc23)cccc1-c1cccc(-c2nc3cc(CNCCC(=O)O)cc(C#N)c3o2)c1C` [Example 101, (R)-3-((7-cyano-2-(3′-(3-((3-hydroxypyrrolidin-1-yl)methyl)-1,7-naphthyridin-8-ylamino)-2,2′-dimethylbiphenyl-3-yl)benzo[d]oxazol-5-yl)methylamino)propanoic acid]: the pIC50 is at least 8.00.
As for `Cc1c(-c2nc3cc(CN4CC[C@@H](C(=O)O)C4)cc(C#N)c3o2)cccc1-c1cccc(-n2cc3c(n2)CN(C)C3)c1Cl` [Example 55, (R)-1-((2-(2′-chloro-2-methyl-3′-(5-methyl-5,6-dihydropyrrolo[3,4-c]pyrazol-2(4H)-yl)biphenyl-3-yl)-7-cyanobenzo[d]oxazol-5-yl)methyl)pyrrolidine-3-carboxylic acid], the negative logarithm of the IC50 (pIC50) is at least 8.00.

Broadly, the pIC50 is the IC50 on a negative log10 scale, so that one unit is a factor of ten.
